ChEMBL document CHEMBL1201862, “PubChem BioAssay data set” (2004)
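96-well plates; 48 h exposure; 5 concentrations. Endpoints by linear interpolation between flanking doses. Not reached: highest tested concentration assigned. Abbreviation: GI50, concentration required for 50% inhibition of growth.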 The source made the active and inactive calls. Rule as the data show it: active = GI50 up to about 1.1 µM and inactive = higher.

Columns and labels:
Assay in all cases: NCI anticancer screen, dose series, 48 h
A549 = test system: A549
ACHN = test system: ACHN
COLO 205 = test system: COLO 205
DU-145 = test system: DU-145
EKVX = test system: EKVX
HCT-15 = test system: HCT-15
HOP-62 = test system: HOP-62
K562 = test system: K562
MCF7 = test system: MCF7
NCI-H460 = test system: NCI-H460
OVCAR-8 = test system: OVCAR-8
PC-3 = test system: PC-3
RPMI-8226 = test system: RPMI-8226
SF-539 = test system: SF-539
SN12C = test system: SN12C
UO-31 = test system: UO-31
CAKI-1 = test system: CAKI-1
MDA-MB-435 = test system: MDA-MB-435
CCRF-CEM = test system: CCRF-CEM
NCI-H522 = test system: NCI-H522

SMILES | GI50 (A549) | GI50 (ACHN) | GI50 (COLO 205) | GI50 (DU-145) | GI50 (EKVX) | GI50 (HCT-15) | GI50 (HOP-62) | GI50 (K562) | GI50 (MCF7) | GI50 (NCI-H460) | GI50 (OVCAR-8) | GI50 (PC-3) | GI50 (RPMI-8226) | GI50 (SF-539) | GI50 (SN12C) | GI50 (UO-31) | GI50 (CAKI-1) | GI50 (MDA-MB-435) | GI50 (CCRF-CEM) | GI50 (NCI-H522)
CN(C)c1ccc(/C=C2\C[C@H]3[C@@H]4CC=C5C[C@@H](O)CC[C@]5(C)[C@H]4CC[C@]3(C)C2=O)cc1 | 19.9 µM (inactive) | 16.2 µM (inactive) | 23.7 µM (inactive) | 44 µM (inactive) | 23.6 µM (inactive) | 34.5 µM | 13.2 µM (inactive) | 32.8 µM (inactive) | 30.5 µM (inactive) | 15.8 µM (inactive) | 4.88 µM (inactive) | 13.4 µM (inactive) | 66.8 µM (inactive) | 9.2 µM (inactive) | 20.9 µM (inactive) | 4.55 µM (inactive) | – | – | – | –
CC(=O)NNC(=S)N/C=C1/C(=O)C=C(C)OC1=O | > 100 µM (inactive) | > 100 µM (inactive) | > 100 µM (inactive) | > 100 µM (inactive) | > 100 µM (inactive) | > 100 µM | > 100 µM (inactive) | – | > 100 µM (inactive) | > 100 µM (inactive) | > 100 µM (inactive) | > 100 µM (inactive) | – | > 100 µM (inactive) | > 100 µM (inactive) | > 100 µM (inactive) | > 100 µM (inactive) | > 100 µM (inactive) | – | –
CC1CCC2CC1NC(=O)CCOCCC(=O)NC2(C)C (configuration not stated) | > 100 µM (inactive) | – | > 100 µM (inactive) | > 100 µM (inactive) | > 100 µM (inactive) | > 100 µM | > 100 µM (inactive) | > 100 µM (inactive) | > 100 µM (inactive) | > 100 µM (inactive) | > 100 µM (inactive) | > 100 µM (inactive) | – | > 100 µM (inactive) | > 100 µM (inactive) | > 100 µM (inactive) | – | > 100 µM (inactive) | > 100 µM (inactive) | > 100 µM (inactive)
Cc1cn(CCOCCOC(=O)NC(CCCNC(N)=O)C(=O)O)c(=O)[nH]c1=O (configuration not stated) | > 100 µM (inactive) | > 100 µM (inactive) | > 100 µM (inactive) | > 100 µM (inactive) | > 100 µM (inactive) | > 100 µM | > 100 µM (inactive) | > 100 µM (inactive) | > 100 µM (inactive) | > 100 µM (inactive) | > 100 µM (inactive) | > 100 µM (inactive) | > 100 µM (inactive) | > 100 µM (inactive) | > 100 µM (inactive) | > 100 µM (inactive) | > 100 µM (inactive) | > 100 µM (inactive) | > 100 µM (inactive) | –
c1ccc(SCCP(CCP(c2ccccc2)c2ccccc2)c2ccccc2)cc1 (configuration not stated) | 6.17 µM (inactive) | 5.02 µM (inactive) | 8.77 µM (inactive) | 3.41 µM (inactive) | 9.02 µM (inactive) | 17.7 µM | 8.2 µM (inactive) | 4.21 µM (inactive) | 14.1 µM (inactive) | 2.84 µM (inactive) | 3.06 µM (inactive) | – | 3.14 µM (inactive) | 34.9 µM (inactive) | 4.09 µM (inactive) | 7.73 µM (inactive) | 7.26 µM (inactive) | 11.5 µM (inactive) | 8.3 µM (inactive) | –
CCOC(=O)C1=C(C)NC(c2ccccc2)=C(C(=O)OCc2ccccc2)C1C#Cc1ccccc1 (configuration not stated) | – | – | > 100 µM (inactive) | > 100 µM (inactive) | > 100 µM (inactive) | > 100 µM | > 100 µM (inactive) | > 100 µM (inactive) | > 100 µM (inactive) | – | > 100 µM (inactive) | > 100 µM (inactive) | > 100 µM (inactive) | > 100 µM (inactive) | 12.4 µM (inactive) | 58.2 µM (inactive) | 0.0675 µM (active) | > 100 µM (inactive) | > 100 µM (inactive) | –
